Patent US8048879B2, “Substituted 4,5,6,7-tetrahydro-isoxazolo[4,5-c]pyridine compounds and use thereof for producing medicaments” (Gruenenthal GmbH, priority 2005, dated 2011)

Biological target: T1, 5-HT transporter (Rattus norvegicus, UniProt P31652)
T1 construct: from tissue; host or cells: rat brain (medulla and pons), synaptosomes, P2 fraction
Assay: 5-HT uptake inhibition, synaptosomes from rat brain (medulla and pons)
Assay type: biochemical
Excerpt: b) Method for Determining Noradrenalin and 5-HT Uptake Inhibition:
Synaptosomes from rat brain regions are freshly isolated for in vitro studies, as described in the publication “The isolation of nerve endings from brain” by E. G. Gray and V. P. Whittaker, J. Anatomy 96, pages 79-88, 1962. The corresponding literature description is hereby introduced as a reference and is deemed to be part of the disclosure.
The tissue (hypothalamus for the determination of noradrenalin uptake inhibition and medulla and pons for the determination of 5-HT uptake inhibition) is homogenised in ice-cooled 0.32 M sucrose (100 mg of tissue/1 mL) in a glass homogeniser with Teflon pestle using five complete up and down strokes at 840 revolutions/minute.
The homogenate is centrifuged at 4° C. for 10 minutes at 1000 g. After subsequent centrifugation at 17000 g for 55 minutes, the synaptosomes (P2 fraction) are obtained, which are resuspended in 0.32 M […] (0.5 mL/100 mg of original weight).
The particular uptake is measured in a 96-well microtitre plate. The volume is 250 μL and the incubation proceeds at room temperature (approx. 20-25° C.) under an O2 atmosphere.
The incubation time is 7.5 minutes for [^3H]-NA and 5 minutes for [^3H]-5-HT. The 96 samples are then filtered through a Unifilter GF/B® microtitre plate (Packard) and washed with 200 mL of incubated buffer using a “Brabdel MPXRI-96T Cell-Harvester”. The Unifilter GF/B plate is dried for 1 hour at 55° C. The plate is then sealed with a Back Seal® (Packard) and 35 μL of scintillation fluid are added per well (Ultima Gold®, Packard). After sealing with a top Seal® (Packard) and establishing an equilibrium (around 5 hours), radioactivity is determined in a “Trilux 1450 Microbeta” (Wallac).
The quantity of protein used in the above determination corresponds to the values known from the literature, as for example described in “Protein measurement with the folin phenol reagent”, Lowry et al., J. Biol. Chem., 193, 265-275, 1951.
A detailed description of the method may additionally be found in the literature, for example in M. Ch. Frink, H.-H. Hennies, W. Engelberger, M. Haurand and B. Wilffert (1996) Arzneim.-Forsch./Drug Res. 46 (III), 11, 1029-1036.
The following characteristics were determined for the NA or 5-HT transporter: […]

T1 sequence (P31652 whole entry): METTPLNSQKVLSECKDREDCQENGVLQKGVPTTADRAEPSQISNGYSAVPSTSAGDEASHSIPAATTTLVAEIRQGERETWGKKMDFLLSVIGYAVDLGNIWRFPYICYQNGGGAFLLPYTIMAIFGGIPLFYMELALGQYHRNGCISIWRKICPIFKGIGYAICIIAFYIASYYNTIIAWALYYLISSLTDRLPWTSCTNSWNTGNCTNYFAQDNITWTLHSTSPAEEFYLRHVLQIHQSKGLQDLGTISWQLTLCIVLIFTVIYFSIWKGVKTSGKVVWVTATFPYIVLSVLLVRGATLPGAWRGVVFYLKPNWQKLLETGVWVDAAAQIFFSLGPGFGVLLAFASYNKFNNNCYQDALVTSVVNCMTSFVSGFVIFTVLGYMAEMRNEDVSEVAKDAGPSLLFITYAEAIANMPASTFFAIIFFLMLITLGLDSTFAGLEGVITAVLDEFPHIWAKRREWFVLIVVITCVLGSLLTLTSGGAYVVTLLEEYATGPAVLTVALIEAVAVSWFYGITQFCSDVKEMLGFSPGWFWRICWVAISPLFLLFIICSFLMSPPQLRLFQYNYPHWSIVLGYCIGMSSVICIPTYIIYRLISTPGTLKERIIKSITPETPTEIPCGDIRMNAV

Structure (SMILES) | inhibition at 10 µM | 5-HT uptake (rat), 10 μM, % inhibition (10 µM)
COc1ccc(C(C)NC(=O)c2noc3c2CN(S(=O)(=O)c2ccc(OC)cc2)CC3)cc1 (stereo not drawn) [Example 84, 5-(4-methoxy-benzenesulfonyl)-4,5,6,7-tetrahydro-isoxazolo[4,5-c]pyridine-3-carboxylic acid [1-(4-methoxyphenyl)-ethyl] amide] | 69% | 
CCOC(=O)C(C)NC(=O)c1noc2c1CN(S(=O)(=O)c1cccs1)CC2 (stereo not drawn) [Example 85, 2-{[5-(thiophene-2-sulfonyl)-4,5,6,7-tetrahydro-isoxazolo[4,5-c]pyridine-3-carbonyl]-amino}-propionic acid ethyl ester] | 67% | 
C=CCOc1ccc(CN(Cc2ccco2)C(=O)c2noc3c2CN(S(=O)(=O)c2cccc(C(F)(F)F)c2)CC3)cc1 [Example 87, 5-(3-trifluoromethyl-benzenesulfonyl)-4,5,6,7-tetrahydro-isoxazolo[4,5-c]pyridine-3-carboxylic acid (4-allyloxy-benzyl)-furan-2-ylmethyl amide] | 66% | 
COc1ccc(S(=O)(=O)N2CCc3onc(C(=O)NC(CCC(=O)OC(C)(C)C)C(N)=O)c3C2)cc1 (stereo not drawn) [Example 88, 4-carbamoyl-4-{[5-(4-methoxy-benzenesulfonyl)-4,5,6,7-tetrahydro-isoxazolo[4,5-c]pyridine-3-carbonyl]-amino}-butanoic acid tert-butyl ester] | 62% | 
CSc1ccc(CN(Cc2ccco2)C(=O)c2noc3c2CN(S(=O)(=O)N(C)C)CC3)cc1 [Example 89, 5-dimethylsulfamoyl-4,5,6,7-tetrahydro-isoxazolo[4,5-c]pyridine-3-carboxylic acid furan-2-ylmethyl-(4-methylsulfanyl-benzyl) amide] | 64% | 
Cc1cc(C(=O)N2CCc3onc(C(=O)NCCN4CCOCC4)c3C2)ccc1Br [Example 90, 5-(4-bromo-3-methyl-benzoyl)-4,5,6,7-tetrahydro-isoxazolo[4,5-c]pyridine-3-carboxylic acid (2-morpholin-4-yl-ethyl) amide] | 65% | 
Cc1ccc(S(=O)(=O)N2CCc3onc(C(=O)NC4CCN(Cc5c(Cl)cccc5Cl)C4)c3C2)cc1 (stereo not drawn) [Example 91, 5-(toluene-4-sulfonyl)-4,5,6,7-tetrahydro-isoxazolo[4,5-c]pyridine-3-carboxylic acid [1-(2,6-dichloro-benzyl)-pyrrolidin-3-yl] amide] | 67% | 
O=C(NCCc1ccc(Cl)c(Cl)c1)c1noc2c1CN(S(=O)(=O)c1ccccc1)CC2 [Example 92, 5-benzenesulfonyl-4,5,6,7-tetrahydro-isoxazolo[4,5-c]pyridine-3-carboxylic acid [2-(3,4-dichloro-phenyl)-ethyl] amide] | 61% | 
CN(C)CCNC(=O)c1noc2c1CN(C(=O)c1cccc(SC(F)F)c1)CC2 [Example 93, 5-(3-difluoromethylsulfanyl-benzoyl)-4,5,6,7-tetrahydro-isoxazolo[4,5-c]pyridine-3-carboxylic acid (2-dimethylamino-ethyl) amide] | 88% | 
O=C(NCCN1CCCC1)c1noc2c1CN(C(=O)COc1cccc(Cl)c1)CC2 [Example 94, 5-[2-(3-chlorophenoxy)-acetyl]-4,5,6,7-tetrahydro-isoxazolo[4,5-c]pyridine-3-carboxylic acid (2-pyrrolidin-1-yl-ethyl) amide] |  | 94%
COc1ccc(S(=O)(=O)N2CCc3onc(C(=O)NCc4cccc(OC)c4OC)c3C2)cc1 [Example 95, 5-(4-methoxy-benzenesulfonyl)-4,5,6,7-tetrahydro-isoxazolo[4,5-c]pyridine-3-carboxylic acid 2,3-dimethoxy-benzyl amide] | 68% | 
CCOC(=O)CCNC(=O)c1noc2c1CN(C(=O)c1ccc(OC)cc1)CC2 [Example 98, 3-{[5-(4-methoxy-benzoyl)-4,5,6,7-tetrahydro-isoxazolo[4,5-c]pyridine-3-carbonyl]-amino}-propionic acid ethyl ester] | 75% | 
CN(C)CCNC(=O)c1noc2c1CN(C(=O)CCCOc1ccccc1)CC2 [Example 99, 5-(4-phenoxy-butyryl)-4,5,6,7-tetrahydro-isoxazolo[4,5-c]pyridine-3-carboxylic acid (2-dimethylamino-ethyl) amide] | 69% | 
Cc1cccc2c(CCNC(=O)c3noc4c3CN(S(=O)(=O)c3ccc(OC(F)(F)F)cc3)CC4)c[nH]c12 [Example 100, 5-(4-trifluoromethoxy-benzenesulfonyl)-4,5,6,7-tetrahydro-isoxazolo[4,5-c]pyridine-3-carboxylic acid [2-(7-methyl-1H-indol-3-yl)-ethyl] amide] | 83% | 
Cc1cc(C(=O)N2CCc3onc(C(=O)NCCN4CCCC4)c3C2)ccc1Br [Example 102, 5-(4-bromo-3-methyl-benzoyl)-4,5,6,7-tetrahydro-isoxazolo[4,5-c]pyridine-3-carboxylic acid (2-pyrrolidin-1-yl-ethyl) amide] | 70% | 
O=C(NCc1ccc(C(F)(F)F)c(F)c1)c1noc2c1CN(S(=O)(=O)c1ccccc1)CC2 [Example 113, 5-benzenesulfonyl-4,5,6,7-tetrahydro-isoxazolo[4,5-c]pyridine-3-carboxylic acid 3-fluoro-4-trifluoromethyl-benzyl amide] | 83% | 
CCCCOc1ccc(S(=O)(=O)N2CCc3onc(C(=O)NCC(C)C)c3C2)cc1 [Example 114, 5-(4-butoxy-benzenesulfonyl)-4,5,6,7-tetrahydro-isoxazolo[4,5-c]pyridine-3-carboxylic acid isobutyl amide] | 85% | 
CC(C)CNC(=O)c1noc2c1CN(C(=O)C(NC(=O)OCc1ccccc1)c1ccccc1)CC2 (stereo not drawn) [Example 126, [2-(3-isobutylcarbamoyl-6,7-dihydro-4H-isoxazolo[4,5-c]pyridin-5-yl)-2-oxo-1-phenyl-ethyl]-carbamic acid benzyl ester] | 80% | 
O=C(NC(=S)N1CCc2onc(C(=O)NCCN3CCCC3)c2C1)c1ccccc1 [Example 128, 5-benzoylaminocarbothioyl-4,5,6,7-tetrahydro-isoxazolo[4,5-c]pyridine-3-carboxylic acid (2-pyrrolidin-1-yl-ethyl) amide] | 80% | 

The next lines start with results.

inhibition at 10 µM | Structure (SMILES) | 5-HT uptake (rat), 10 μM, % inhibition (10 µM)
76% | COc1ccc(OCCNC(=O)c2noc3c2CN(S(=O)(=O)c2ccccc2)CC3)cc1 [Example 106, 5-benzenesulfonyl-4,5,6,7-tetrahydro-isoxazolo[4,5-c]pyridine-3-carboxylic acid [2-(4-methoxy-phenoxy)-ethyl] amide] | 
61% | CN(C)S(=O)(=O)N1CCc2onc(C(=O)NCc3ccc(C(F)(F)F)c(F)c3)c2C1 [Example 107, 5-dimethylsulfamoyl-4,5,6,7-tetrahydro-isoxazolo[4,5-c]pyridine-3-carboxylic acid 3-fluoro-4-trifluoromethyl-benzyl amide] | 
88% | C#CCNC(=O)c1noc2c1CN(C(=O)c1cccc(C)c1)CC2 [Example 108, 5-(3-methyl-benzoyl)-4,5,6,7-tetrahydro-isoxazolo[4,5-c]pyridine-3-carboxylic acid prop-2-ynyl amide] | 
71% | O=C(NCc1ccc(F)cc1F)c1noc2c1CN(S(=O)(=O)c1cc(Cl)ccc1Cl)CC2 [Example 112, 5-(2,5-dichloro-benzenesulfonyl)-4,5,6,7-tetrahydro-isoxazolo[4,5-c]pyridine-3-carboxylic acid 2,4-difluoro-benzyl amide] | 
65% | Cc1ccc(C(=O)N2CCc3onc(C(=O)NCCN4CCCC4)c3C2)cc1F [Example 115, 5-(3-fluoro-4-methyl-benzoyl)-4,5,6,7-tetrahydro-isoxazolo[4,5-c]pyridine-3-carboxylic acid (2-pyrrolidin-1-yl-ethyl) amide] | 
77% | CC(C)CNC(=O)c1noc2c1CN(C(=O)c1cc(C(F)(F)F)ccc1Cl)CC2 [Example 116, 5-(2-chloro-5-trifluoromethyl-benzoyl)-4,5,6,7-tetrahydro-isoxazolo[4,5-c]pyridine-3-carboxylic acid isobutyl amide] | 
73% | CN(C)CCNC(=O)c1noc2c1CN(C(=O)c1cccc(OC(F)(F)F)c1)CC2 [Example 119, 5-(3-trifluoromethoxy-benzoyl)-4,5,6,7-tetrahydro-isoxazolo[4,5-c]pyridine-3-carboxylic acid (2-dimethylamino-ethyl) amide] | 
65% | O=C(NCc1ccc(F)cc1)c1noc2c1CN(C(=O)c1ccc3ncccc3c1)CC2 [Example 124, 5-(quinoline-6-carbonyl)-4,5,6,7-tetrahydro-isoxazolo[4,5-c]pyridine-3-carboxylic acid 4-fluorobenzyl amide] | 
